# Laboratory results as given in ChEMBL document CHEMBL4725331, “An investigative study of antitumor properties of a novel thiazolo[4,5-d]pyrimidine small molecule revealing superior antitumor activity with CDK1 selectivity and potent pro-apoptotic properties” (Bioorg Med Chem, 2020).
# Assays:
# SK-MEL-2 = experiment: Antiproliferative activity against human SK-MEL-2 cells assessed as inhibition of cell growth measured after 48 hrs by SRB assay; format: functional
# NCI-H322M = experiment: Antiproliferative activity against human NCI-H322M cells assessed as inhibition of cell growth measured after 48 hrs by SRB assay; format: functional
# WI-38 [1] = experiment: Induction of apoptosis in human WI-38 cells assessed as necrotic cells at IC50 incubated for 48 hrs by annexin-V FITC and propidium iodide staining based flow cytometry analysis (reference value: 0.39 %); format: cell-based; conditions: wi-38, 48 h
# SNB-19 = experiment: Antiproliferative activity against human SNB-19 cells assessed as inhibition of cell growth at 10 uM measured after 48 hrs by SRB assay relative to control; format: functional
# 786-0 = experiment: Antiproliferative activity against human 786-0 cells assessed as inhibition of cell growth measured after 48 hrs by SRB assay; format: functional
# HCT-116 [2] = experiment: Induction of apoptosis in human HCT116 cells assessed as increase in p53 gene expression by RT-PCR analysis relative to untreated control; format: functional
# PC-3 [3] = experiment: Antiproliferative activity against human PC-3 cells assessed as inhibition of cell growth measured after 48 hrs by SRB assay; format: functional
# RPMI-8226 [4] = experiment: Antiproliferative activity against human RPMI-8226 cells assessed as inhibition of cell growth at 10 uM measured after 48 hrs by SRB assay relative to control; format: functional
# HOP-92 = experiment: Antiproliferative activity against human HOP-92 cells assessed as inhibition of cell growth measured after 48 hrs by SRB assay; format: functional
# HCT-116 [5] = experiment: Induction of apoptosis in human HCT-116 cells assessed as late apoptotic cells at IC50 incubated for 48 hrs by annexin-V FITC and propidium iodide staining based flow cytometry analysis (reference value: 0.28 %); format: functional
# SK-MEL-5 = experiment: Antiproliferative activity against human SK-MEL-5 cells assessed as inhibition of cell growth at 10 uM measured after 48 hrs by SRB assay relative to control; format: functional
# WI-38 [6] = experiment: Cell cycle arrest in human WI-38 cells assessed as accumulation in G0/G1 phase at IC50 concentration incubated for 48 hrs by propidium iodide staining based flow cytometry analysis (reference value: 57.68 %); conditions: wi-38, 48 h
# EKVX = experiment: Antiproliferative activity against human EKVX cells assessed as inhibition of cell growth at 10 uM measured after 48 hrs by SRB assay relative to control; format: functional
# HCT-116 [7] = experiment: Induction of apoptosis in human HCT116 cells assessed as decrease in Bcl2 gene expression by RT-PCR analysis relative to untreated control; format: functional
# NCI-H522 [8] = experiment: Antiproliferative activity against human NCI-H522 cells assessed as inhibition of cell growth at 10 uM measured after 48 hrs by SRB assay relative to control; format: functional
# SF-268 = experiment: Antiproliferative activity against human SF-268 cells assessed as inhibition of cell growth at 10 uM measured after 48 hrs by SRB assay relative to control; format: functional
# MCF7 = experiment: Antiproliferative activity against human MCF7 cells assessed as inhibition of cell growth at 10 uM measured after 48 hrs by SRB assay relative to control; format: functional
# OVCAR-5 = experiment: Antiproliferative activity against human OVCAR-5 cells assessed as inhibition of cell growth measured after 48 hrs by SRB assay; format: functional
# COLO 205 = experiment: Antiproliferative activity against human COLO 205 cells assessed as inhibition of cell growth measured after 48 hrs by SRB assay; format: functional
# SK-MEL-28 = experiment: Antiproliferative activity against human SK-MEL-28 cells assessed as inhibition of cell growth measured after 48 hrs by SRB assay; format: functional
# PC-3 [9] = experiment: Antiproliferative activity against human PC-3 cells assessed as inhibition of cell growth at 10 uM measured after 48 hrs by SRB assay relative to control; format: functional
# NCI-H226 = experiment: Antiproliferative activity against human NCI-H226 cells assessed as inhibition of cell growth measured after 48 hrs by SRB assay; format: functional
# RXF 393 [10] = experiment: Antiproliferative activity against human RXF 393 cells assessed as inhibition of cell growth at 10 uM measured after 48 hrs by SRB assay relative to control; format: functional
# Hs-578T [11] = experiment: Antiproliferative activity against human Hs-578T cells assessed as inhibition of cell growth measured after 48 hrs by SRB assay; format: functional
# MDA-MB-468 = experiment: Antiproliferative activity against human MDA-MB-468 cells assessed as inhibition of cell growth measured after 48 hrs by SRB assay; format: functional
# RXF 393 [12] = experiment: Antiproliferative activity against human RXF 393 cells assessed as inhibition of cell growth measured after 48 hrs by SRB assay; format: functional
# Hs-578T [13] = experiment: Antiproliferative activity against human Hs-578T cells assessed as inhibition of cell growth at 10 uM measured after 48 hrs by SRB assay relative to control; format: functional
# RPMI-8226 [14] = experiment: Antiproliferative activity against human RPMI-8226 cells assessed as inhibition of cell growth measured after 48 hrs by SRB assay; format: functional
# NCI/ADR-RES = experiment: Antiproliferative activity against human NCI/ADR-RES cells assessed as inhibition of cell growth measured after 48 hrs by SRB assay; format: functional
# K562 = experiment: Antiproliferative activity against human K562 cells assessed as inhibition of cell growth at 10 uM measured after 48 hrs by SRB assay relative to control; format: functional
# HCT-116 [15] = experiment: Induction of apoptosis in human HCT116 cells assessed as up regulation of caspase-3 expression by RT-PCR analysis relative to untreated control; format: functional
# TK-10 = experiment: Antiproliferative activity against human TK-10 cells assessed as inhibition of cell growth at 10 uM measured after 48 hrs by SRB assay relative to control; format: functional
# NCI-H522 [16] = experiment: Antiproliferative activity against human NCI-H522 cells assessed as inhibition of cell growth measured after 48 hrs by SRB assay; format: functional
# UACC-62 = experiment: Antiproliferative activity against human UACC-62 cells assessed as inhibition of cell growth at 10 uM measured after 48 hrs by SRB assay relative to control; format: functional
# [17] = read-out: LC50 (the source's name)
compound,measurement,setting,value
COc1ccc(-n2c(=S)sc3c(Cl)nc(C)nc32)c(OC)c1,GI50,SK-MEL-2,2.04 µM
same,TGI,SK-MEL-2,3.98 µM
same,CC50,SK-MEL-2; [17],7.76 µM
same,GI50,NCI-H322M,2.51 µM
same,TGI,NCI-H322M,6.46 µM
same,CC50,NCI-H322M; [17],22.4 µM
same,Activity,WI-38 [1],1.41%
same,inhibition at 10 µM,SNB-19,> 50%
same,GI50,786-0,4.47 µM
same,TGI,786-0,20.4 µM
same,CC50,786-0; [17],81.3 µM
same,fold change (FC),HCT-116 [2],13.1
same,GI50,PC-3 [3],2.4 µM
same,TGI,PC-3 [3],5.89 µM
same,CC50,PC-3 [3]; [17],22.9 µM
same,inhibition at 10 µM,RPMI-8226 [4],> 50%
same,GI50,HOP-92,2.04 µM
same,TGI,HOP-92,8.51 µM
same,CC50,HOP-92; [17],31.6 µM
same,Activity,HCT-116 [5],12.78%
same,inhibition at 10 µM,SK-MEL-5,> 50%
same,Activity,WI-38 [6],54.45%
same,inhibition at 10 µM,EKVX,> 50%
same,fold change (FC),HCT-116 [7],3.64
same,inhibition at 10 µM,NCI-H522 [8],> 50%
same,inhibition at 10 µM,SF-268,> 50%
same,inhibition at 10 µM,MCF7,> 50%
same,GI50,OVCAR-5,6.17 µM
same,TGI,OVCAR-5,20.9 µM
same,CC50,OVCAR-5; [17],53.7 µM
same,GI50,COLO 205,3.8 µM
same,TGI,COLO 205,13.2 µM
same,CC50,COLO 205; [17],47.9 µM
same,GI50,SK-MEL-28,2.19 µM
same,TGI,SK-MEL-28,4.57 µM
same,CC50,SK-MEL-28; [17],9.77 µM
same,inhibition at 10 µM,PC-3 [9],> 50%
same,GI50,NCI-H226,3.24 µM
same,TGI,NCI-H226,12 µM
same,CC50,NCI-H226; [17],44.7 µM
same,inhibition at 10 µM,RXF 393 [10],> 50%
same,GI50,Hs-578T [11],2.63 µM
same,TGI,Hs-578T [11],7.76 µM
same,CC50,Hs-578T [11]; [17],> 100 µM
same,GI50,MDA-MB-468,2 µM
same,TGI,MDA-MB-468,6.61 µM
same,CC50,MDA-MB-468; [17],93.3 µM
same,GI50,RXF 393 [12],2 µM
same,TGI,RXF 393 [12],4.07 µM
same,CC50,RXF 393 [12]; [17],8.32 µM
same,inhibition at 10 µM,Hs-578T [13],> 50%
same,GI50,RPMI-8226 [14],3.47 µM
same,TGI,RPMI-8226 [14],14.1 µM
same,CC50,RPMI-8226 [14]; [17],> 100 µM
same,GI50,NCI/ADR-RES,13.2 µM
same,TGI,NCI/ADR-RES,72.4 µM
same,CC50,NCI/ADR-RES; [17],> 100 µM
same,inhibition at 10 µM,K562,> 50%
same,fold change (FC),HCT-116 [15],11.2
same,inhibition at 10 µM,TK-10,> 50%
same,GI50,NCI-H522 [16],1.82 µM
same,TGI,NCI-H522 [16],3.89 µM
same,CC50,NCI-H522 [16]; [17],8.32 µM
same,inhibition at 10 µM,UACC-62,> 50%
